This passage reports IC50 results from US20260070945A1, “MACROCYCLIC IMMUNOMODULATORS” (Bristol-Myers Squibb Company, priority 2022, published 2026).

Where a SMILES comes first, the peptide text is derived from it. Bridges are numbered along the chain shown (N, C = ends). [ ]: non-standard residue; d: D form. The star is where a group is joined. Phe(3-CF3) = N[C@@H](Cc1cccc(C(F)(F)F)c1)C(=O)O; Phe(4-COOH) = N[C@@H](Cc1ccc(C(=O)O)cc1)C(=O)O; Bip = N[C@@H](Cc1ccc(-c2ccccc2)cc1)C(=O)O; NH(CH2)12COOH = O=C(O)CCCCCCCCCCCCN*; Val(3-OH) = CC(C)(O)[C@H](N)C(=O)O; Cha = N[C@@H](CC1CCCCC1)C(=O)O; Cit = NC(=O)NCCC[C@H](N)C(=O)O; Carboxymethyl = O=C(O)C*; NMeA = CN[C@@H](C)C(=O)O; Dab = NCC[C@H](N)C(=O)O

In this assay the target is T1, PD-1/PD-L1 interaction (PE-labeled human PD-L1-Ig binding to Jurkat cell line over-expressing human PD-1) (Homo sapiens, UniProt Q15116).
T1 construct: expressed in transfected cells; host or cells: Jurkat
T1 sequence (Q15116 25-288): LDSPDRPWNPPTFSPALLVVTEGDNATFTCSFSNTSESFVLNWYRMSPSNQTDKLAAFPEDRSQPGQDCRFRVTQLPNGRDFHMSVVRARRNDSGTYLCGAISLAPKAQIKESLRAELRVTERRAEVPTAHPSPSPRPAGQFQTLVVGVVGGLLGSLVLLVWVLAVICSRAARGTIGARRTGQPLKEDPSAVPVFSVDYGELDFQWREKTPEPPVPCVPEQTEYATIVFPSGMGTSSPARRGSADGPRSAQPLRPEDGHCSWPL
Kind of assay: Jurkat-PD-1 Cell Binding High-Content Screening Assay (CBA). The conditions noted are these: Jurkat-hPD-1 cells, PE-labeled PD-L1-Ig 20 nM final; read-out: Jurkat HPD1 PDL1 IC50. The method, boiled down: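 Jurkat cells overexpressing human PD-1 (8×10^3/well, DMEM + 10% FCS) preincubated with compound 2 h at 37 °C, then PE-labelled human PD-L1-Ig (20 nM final) for 1 h. Cells fixed in paraformaldehyde with Hoechst 33342; bound PD-L1 quantified by high-content imaging.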
On to `COC[C@@H]1NC(=O)CSC[C@@H](C(=O)N[C@@H](CCN)C(=O)NCCCCCCCCCCCCC(=O)O)NC(=O)[C@H](CO)NC(=O)[C@H](C(C)(C)O)NC(=O)[C@H](CC2CCCCC2)NC(=O)[C@H](CCN)NC(=O)[C@@H](CC(C)C)NC(=O)[C@H](C)N(C)C(=O)[C@H](CCC(N)=O)NC(=O)[C@H](Cc2ccc(-c3ccccc3)cc2)NC(=O)[C@H](Cc2ccc(C(=O)O)cc2)NC(=O)[C@H](Cc2cccc(C(F)(F)F)c2)NC(=O)[C@H](CC(=O)O)NC(=O)[C@H](Cc2ccc(OCC(=O)O)cc2)NC1=O` [Example 1136] ({CH2CO}-S(Me)Y(Carboxymethyl)D[Phe(3-CF3)][Phe(4-COOH)][Bip]Q[NMeA][dL][Dab][Cha][Val(3-OH)]SC[Dab]-{NH(CH2)12COOH}; thioether N-14), for which the half-inhibitory concentration (IC50) was determined as 18.1 nM.
In the case of `COC[C@@H]1NC(=O)CSC[C@@H](C(=O)N[C@@H](CCN)C(=O)NCCCCCCCCCCCCC(=O)O)NC(=O)[C@H](Cc2c[nH]cn2)NC(=O)[C@H](C(C)(C)O)NC(=O)[C@H](CC2CCCCC2)NC(=O)[C@H](CCN)NC(=O)[C@@H](CC(C)C)NC(=O)[C@H](C)N(C)C(=O)[C@H](CCC(N)=O)NC(=O)[C@H](Cc2ccc(-c3ccccc3)cc2)NC(=O)[C@H](Cc2ccc(C(=O)O)cc2)NC(=O)[C@H](Cc2cccc(C(F)(F)F)c2)NC(=O)[C@H](CC(=O)O)NC(=O)[C@H](Cc2ccc(OCC(=O)O)cc2)NC1=O` [Example 1137] ({CH2CO}-S(Me)Y(Carboxymethyl)D[Phe(3-CF3)][Phe(4-COOH)][Bip]Q[NMeA][dL][Dab][Cha][Val(3-OH)]HC[Dab]-{NH(CH2)12COOH}; thioether N-14), the IC50 was 13.5 nM.
`COC[C@@H]1NC(=O)CSC[C@@H](C(=O)N[C@@H](CCN)C(=O)NCCCCCCCCCCCCC(=O)O)NC(=O)[C@H](CC(=O)O)NC(=O)[C@H](C(C)(C)O)NC(=O)[C@H](CC2CCCCC2)NC(=O)[C@H](CCN)NC(=O)[C@@H](CC(C)C)NC(=O)[C@H](C)N(C)C(=O)[C@H](CCCNC(N)=O)NC(=O)[C@H](Cc2ccc(-c3ccccc3)cc2)NC(=O)[C@H](Cc2ccc(C(=O)O)cc2)NC(=O)[C@H](Cc2cccc(C(F)(F)F)c2)NC(=O)[C@H](CC(=O)O)NC(=O)[C@H](Cc2ccc(OCC(=O)O)cc2)NC1=O` [Example 1138] ({CH2CO}-S(Me)Y(Carboxymethyl)D[Phe(3-CF3)][Phe(4-COOH)][Bip][Cit][NMeA][dL][Dab][Cha][Val(3-OH)]DC[Dab]-{NH(CH2)12COOH}; thioether N-14): the IC50 turned out to be 11.2 nM.
With `COC[C@@H]1NC(=O)CSC[C@@H](C(=O)N[C@@H](CCN)C(=O)NCCCCCCCCCCCCC(=O)O)NC(=O)[C@H](CCC(=O)O)NC(=O)[C@H](C(C)C)NC(=O)[C@H](CC2CCCCC2)NC(=O)[C@H](CCN)NC(=O)[C@@H](CC(C)C)NC(=O)[C@H](C)N(C)C(=O)[C@H](CCCNC(N)=O)NC(=O)[C@H](Cc2ccc(-c3ccccc3)cc2)NC(=O)[C@H](Cc2ccc(C(=O)O)cc2)NC(=O)[C@H](Cc2cccc(C(F)(F)F)c2)NC(=O)[C@H](CC(=O)O)NC(=O)[C@H](Cc2ccc(OCC(=O)O)cc2)NC1=O` [Example 1139] ({CH2CO}-S(Me)Y(Carboxymethyl)D[Phe(3-CF3)][Phe(4-COOH)][Bip][Cit][NMeA][dL][Dab][Cha]VEC[Dab]-{NH(CH2)12COOH}; thioether N-14) the figure was 12.7 nM; with `COC[C@@H]1NC(=O)CSC[C@@H](C(=O)N[C@@H](CCN)C(=O)NCCCCCCCCCCCCC(=O)O)NC(=O)[C@H](CO)NC(=O)[C@H](C(C)(C)O)NC(=O)[C@H](CC2CCCCC2)NC(=O)[C@H](CCN)NC(=O)[C@@H](CC(C)C)NC(=O)[C@H](C)N(C)C(=O)[C@H](CCCNC(N)=O)NC(=O)[C@H](Cc2ccc(-c3ccccc3)cc2)NC(=O)[C@H](Cc2ccc(C(=O)O)cc2)NC(=O)[C@H](Cc2cccc(C(F)(F)F)c2)NC(=O)[C@H](CC(=O)O)NC(=O)[C@H](Cc2ccc(OCC(=O)O)cc2)NC1=O` [Example 1140] ({CH2CO}-S(Me)Y(Carboxymethyl)D[Phe(3-CF3)][Phe(4-COOH)][Bip][Cit][NMeA][dL][Dab][Cha][Val(3-OH)]SC[Dab]-{NH(CH2)12COOH}; thioether N-14), 25.4 nM.
As to `COC[C@@H]1NC(=O)CSC[C@@H](C(=O)N[C@@H](CCN)C(=O)NCCCCCCCCCCCCC(=O)O)NC(=O)[C@H](Cc2c[nH]cn2)NC(=O)[C@H](C(C)(C)O)NC(=O)[C@H](CC2CCCCC2)NC(=O)[C@H](CCN)NC(=O)[C@@H](CC(C)C)NC(=O)[C@H](C)N(C)C(=O)[C@H](CCCNC(N)=O)NC(=O)[C@H](Cc2ccc(-c3ccccc3)cc2)NC(=O)[C@H](Cc2ccc(C(=O)O)cc2)NC(=O)[C@H](Cc2cccc(C(F)(F)F)c2)NC(=O)[C@H](CC(=O)O)NC(=O)[C@H](Cc2ccc(OCC(=O)O)cc2)NC1=O` [Example 1141] ({CH2CO}-S(Me)Y(Carboxymethyl)D[Phe(3-CF3)][Phe(4-COOH)][Bip][Cit][NMeA][dL][Dab][Cha][Val(3-OH)]HC[Dab]-{NH(CH2)12COOH}; thioether N-14), the IC50 is 18.2 nM.
For `CC(C)C[C@H]1NC(=O)[C@H](C)N(C)C(=O)[C@H](CCC(N)=O)NC(=O)[C@H](Cc2ccc(-c3ccccc3)cc2)NC(=O)[C@H](Cc2ccc(C(=O)O)cc2)NC(=O)[C@H](Cc2cccc(C(F)(F)F)c2)NC(=O)[C@H](CC(=O)O)NC(=O)[C@H](Cc2ccc(OCC(=O)O)cc2)NC(=O)[C@H](Cc2ccc(C(=O)O)cc2)NC(=O)CSC[C@@H](C(=O)N[C@@H](CCN)C(=O)NCCCCCCCCCCCCC(=O)O)NC(=O)[C@H](CC(=O)O)NC(=O)[C@H](C(C)(C)O)NC(=O)[C@H](CC2CCCCC2)NC(=O)[C@H](CCN)NC1=O` [Example 1142] ({CH2CO}-[Phe(4-COOH)]Y(Carboxymethyl)D[Phe(3-CF3)][Phe(4-COOH)][Bip]Q[NMeA][dL][Dab][Cha][Val(3-OH)]DC[Dab]-{NH(CH2)12COOH}; thioether N-14), the IC50 was determined as 24.8 nM.
In the case of `CC(C)C[C@H]1NC(=O)[C@H](C)N(C)C(=O)[C@H](CCC(N)=O)NC(=O)[C@H](Cc2ccc(-c3ccccc3)cc2)NC(=O)[C@H](Cc2ccc(C(=O)O)cc2)NC(=O)[C@H](Cc2cccc(C(F)(F)F)c2)NC(=O)[C@H](CC(=O)O)NC(=O)[C@H](Cc2ccc(OCC(=O)O)cc2)NC(=O)[C@H](Cc2ccc(C(=O)O)cc2)NC(=O)CSC[C@@H](C(=O)N[C@@H](CCN)C(=O)NCCCCCCCCCCCCC(=O)O)NC(=O)[C@H](CCC(=O)O)NC(=O)[C@H](C(C)C)NC(=O)[C@H](CC2CCCCC2)NC(=O)[C@H](CCN)NC1=O` [Example 1143] ({CH2CO}-[Phe(4-COOH)]Y(Carboxymethyl)D[Phe(3-CF3)][Phe(4-COOH)][Bip]Q[NMeA][dL][Dab][Cha]VEC[Dab]-{NH(CH2)12COOH}; thioether N-14), the IC50 stood at 21.4 nM.
For `CC(C)C[C@H]1NC(=O)[C@H](C)N(C)C(=O)[C@H](CCC(N)=O)NC(=O)[C@H](Cc2ccc(-c3ccccc3)cc2)NC(=O)[C@H](Cc2ccc(C(=O)O)cc2)NC(=O)[C@H](Cc2cccc(C(F)(F)F)c2)NC(=O)[C@H](CC(=O)O)NC(=O)[C@H](Cc2ccc(OCC(=O)O)cc2)NC(=O)[C@H](Cc2ccc(C(=O)O)cc2)NC(=O)CSC[C@@H](C(=O)N[C@@H](CCN)C(=O)NCCCCCCCCCCCCC(=O)O)NC(=O)[C@H](CO)NC(=O)[C@H](C(C)(C)O)NC(=O)[C@H](CC2CCCCC2)NC(=O)[C@H](CCN)NC1=O` [Example 1144] ({CH2CO}-[Phe(4-COOH)]Y(Carboxymethyl)D[Phe(3-CF3)][Phe(4-COOH)][Bip]Q[NMeA][dL][Dab][Cha][Val(3-OH)]SC[Dab]-{NH(CH2)12COOH}; thioether N-14), the half-inhibitory concentration (IC50) came to 14 nM.
`CC(C)C[C@H]1NC(=O)[C@H](C)N(C)C(=O)[C@H](CCC(N)=O)NC(=O)[C@H](Cc2ccc(-c3ccccc3)cc2)NC(=O)[C@H](Cc2ccc(C(=O)O)cc2)NC(=O)[C@H](Cc2cccc(C(F)(F)F)c2)NC(=O)[C@H](CC(=O)O)NC(=O)[C@H](Cc2ccc(OCC(=O)O)cc2)NC(=O)[C@H](Cc2ccc(C(=O)O)cc2)NC(=O)CSC[C@@H](C(=O)N[C@@H](CCN)C(=O)NCCCCCCCCCCCCC(=O)O)NC(=O)[C@H](Cc2c[nH]cn2)NC(=O)[C@H](C(C)(C)O)NC(=O)[C@H](CC2CCCCC2)NC(=O)[C@H](CCN)NC1=O` [Example 1145] ({CH2CO}-[Phe(4-COOH)]Y(Carboxymethyl)D[Phe(3-CF3)][Phe(4-COOH)][Bip]Q[NMeA][dL][Dab][Cha][Val(3-OH)]HC[Dab]-{NH(CH2)12COOH}; thioether N-14): the IC50 amounted to 11.2 nM.
On to `CC(C)C[C@H]1NC(=O)[C@H](C)N(C)C(=O)[C@H](CCCNC(N)=O)NC(=O)[C@H](Cc2ccc(-c3ccccc3)cc2)NC(=O)[C@H](Cc2ccc(C(=O)O)cc2)NC(=O)[C@H](Cc2cccc(C(F)(F)F)c2)NC(=O)[C@H](CC(=O)O)NC(=O)[C@H](Cc2ccc(OCC(=O)O)cc2)NC(=O)[C@H](Cc2ccc(C(=O)O)cc2)NC(=O)CSC[C@@H](C(=O)N[C@@H](CCN)C(=O)NCCCCCCCCCCCCC(=O)O)NC(=O)[C@H](CC(=O)O)NC(=O)[C@H](C(C)(C)O)NC(=O)[C@H](CC2CCCCC2)NC(=O)[C@H](CCN)NC1=O` [Example 1146] ({CH2CO}-[Phe(4-COOH)]Y(Carboxymethyl)D[Phe(3-CF3)][Phe(4-COOH)][Bip][Cit][NMeA][dL][Dab][Cha][Val(3-OH)]DC[Dab]-{NH(CH2)12COOH}; thioether N-14), for which the half-maximal inhibitory concentration (IC50) worked out at 13.7 nM.
With `CC(C)C[C@H]1NC(=O)[C@H](C)N(C)C(=O)[C@H](CCCNC(N)=O)NC(=O)[C@H](Cc2ccc(-c3ccccc3)cc2)NC(=O)[C@H](Cc2ccc(C(=O)O)cc2)NC(=O)[C@H](Cc2cccc(C(F)(F)F)c2)NC(=O)[C@H](CC(=O)O)NC(=O)[C@H](Cc2ccc(OCC(=O)O)cc2)NC(=O)[C@H](Cc2ccc(C(=O)O)cc2)NC(=O)CSC[C@@H](C(=O)N[C@@H](CCN)C(=O)NCCCCCCCCCCCCC(=O)O)NC(=O)[C@H](CCC(=O)O)NC(=O)[C@H](C(C)C)NC(=O)[C@H](CC2CCCCC2)NC(=O)[C@H](CCN)NC1=O` [Example 1147] ({CH2CO}-[Phe(4-COOH)]Y(Carboxymethyl)D[Phe(3-CF3)][Phe(4-COOH)][Bip][Cit][NMeA][dL][Dab][Cha]VEC[Dab]-{NH(CH2)12COOH}; thioether N-14) the figure was 13.2 nM.

A word on the IC50: it is the midpoint of a concentration-inhibition curve.
